# Numbers after ± are expanded uncertainties.
# Tests used:
# [1] = Liquid; for mass density: 298.2 K, 101.33 kPa
# [2] = refractive index (Na D-line) (dimensionless); settings: 298.2 K; 101.33 kPa; Liquid; Standard Abbe refractometry
SMILES,mass density [1] [kg/m3],Normal boiling temperature ([1]; Fischer boiling point apparatus:FP) [°C],refractive index [2],mass density ([1]; Vibrating tube method) [kg/m3],Normal boiling temperature ([1]; Fischer boiling point apparatus) [°C]
CC(=O)O [acetic acid],1049.44 ± 3,118.1 ± 0.2,1.3715 ± 0.0012,,
CCCCOC(=O)c1ccccc1C(=O)OCCCC [dibutyl phthalate],,,1.4906 ± 0.0013,1050.13 ± 1.4,340.1 ± 0.2

# From the NIST ThermoML archive (doi:10.1016/j.jct.2005.03.003)
